# Measurements from patent US20100016221A1, “METHOD OF DEGRADING PROTEIN BY CHAPERONE-MEDIATED AUTOPHAGY” (RIKEN, priority 2008, published 2010).
# Key:
# Assay type in all cases: cell-based, mouse
# [1] = system: 150Q Neuro2a cells; experiment: Cell death assay (propidium iodide uptake) in 150Q Neuro2a cells; conditions: after 60 hours of induction
# Protocol: (§1) Mouse neuroblastoma (Neuro2a) cells were maintained in Dulbecco's modified Eagle's medium (Sigma) supplemented with 10% heat-inactivated fetal bovine serum (Sigma), 100 U/ml penicillin and 100 μg/ml streptomycin (Invitrogen) at 37° C. in an atmosphere containing 5% CO2 and 95% air. Establishment of stable Neuro2a cell lines with the ecdysone-inducible mammalian expression system (Invitrogen), that express tNhtt-EGFP-16Q (16Q Neuro2a cells), tNhtt-EGFP-150Q (150Q Neuro2a cells) and tNhtt-EGFP-150Q-nls (150Q-nls Neuro2a cells) has been described earlier (T. Nagai et al., supra, H. Doi et al., supra, E. A. Zemskov et al., J Neurochem. 87, 2 (2003)). Neuro2a cells were differentiated with 5mM dbcAMP (N^6, 2′-O-dibutyryladenosine-3′,5′-cyclic monophosphate sodium salt) (Nacalai Tesque) and induced to express tNhtt-polyQ with 2 μM ponasterone A (ponA; Invitrogen) for indicated times. Neuro2a/FRT/TR cell line was generated as described in the protocol for Flp-in/T-Rex system (Invitrogen). […]
# (§2) For quantification of cell death, 5 μg/ml each of Hoechst 33342 and propidium iodide (PI) were added to differentiated and induced Neuro2a cells transiently transfected with either of the tested constructs (FIG. 6A). After 10 minutes at 37° C., the number of cells with PI uptake over the total number of cells was calculated by ArrayScan.
# [2] = system: 150Q-nls Neuro2a cells; experiment: Cell death assay (propidium iodide uptake) in 150Q-nls Neuro2a cells; conditions: after 48 hours of induction
# Protocol: as §1, §2
# [3] = system: polyQ inclusions in 150Q Neuro2a cells (tNhtt-EGFP-150Q); experiment: ArrayScan quantification of polyQ inclusion formation in inducible 150Q Neuro2a cells; conditions: constructs without mRFP, induced and differentiated for 24 hours
# Protocol: (§3) Mouse neuroblastoma (Neuro2a) cells were maintained in Dulbecco's modified Eagle's medium (Sigma) supplemented with 10% heat-inactivated fetal bovine serum (Sigma), 100 U/ml penicillin and 100 μg/ml streptomycin (Invitrogen) at 37° C. in an atmosphere containing 5% CO2 and 95% air. Establishment of stable Neuro2a cell lines with the ecdysone-inducible mammalian expression system (Invitrogen), that express tNhtt-EGFP-16Q (16Q Neuro2a cells), tNhtt-EGFP-150Q (150Q Neuro2a cells) and tNhtt-EGFP-150Q-nls (150Q-nls Neuro2a cells) has been described earlier (T. Nagai et al., supra, H. Doi et al., supra, E. A. Zemskov et al., J Neurochem. 87, 2 (2003)). Neuro2a cells were differentiated with 5mM dbcAMP (N^6, 2′-O-dibutyryladenosine-3′,5′-cyclic monophosphate sodium salt) (Nacalai Tesque) and induced to express tNhtt-polyQ with 2 μM ponasterone A (ponA; Invitrogen) for indicated times. Neuro2a/FRT/TR cell line was generated as described in the protocol for Flp-in/T-Rex system (Invitrogen). Neuro2a tNhtt-62Q-kikGR cell line was generated by transfecting Neuro2a/FRT/TR cells with the pFRT-HD62-KikGR and pOG44 (Invitrogen) constructs using Lipofectamine 2000 reagent and selected with 200 μg/ml hygromycin. The expression of the pFRT-tNhtt-62Q-KikGR was induced by 18 doxycycline treatment of the cells. For the photo-induced kikGR cleavage, cells were exposed to ˜400 nm wavelength for 5 minutes. Rat pheochromocytoma (PC12) cells were grown in the same conditions as Neuro2a cells, except for the serum composition of 5% of fetal bovine and 10% of horse serum (Sigma). All transient transfections were performed with Lipofectamine 2000 (Invitrogen) according to the manufacturer's instruction.
# (§4) For the quantification of the inclusions, cells were grown in 24-well plates for indicated periods, fixed in 4% paraformaldehyde, washed and incubated with Hoechst 33258 at 1/1000 dilution in PBS. Cells were analyzed by ArrayScan® V^TI High Content Screening (HSC) Reader (Cellomics) using Target Activation BioApplication (TABA). TABA analyzes images acquired by a HSC Reader and provides measurements of the intracellular fluorescence intensity and localization on a cell-by-cell basis.
# (§5) In each well, at least 10000 cells were counted and quantified for the presence of the inclusions. Nuclei stained with Hoechst 33285 provided the autofocus target and their count gave the exact number of the quantified cells. The screening itself consisted of two scans using Hoechst, FITC (for GFP) and TRITC (for RFP) fluorescence. Firstly, number of inclusions in transfected cells was calculated when fluorescent spots at size of at least 5 pixels (magnification 20× for cytoplasmic and 40× for nuclear aggregates) with average GFP intensity more than 1500 in the RFP background were counted. Secondly, nuclei were defined as the objects of interest and the cells with average intensity more than 50 within 3 pixels from the nucleus were selected for the analysis. The percentage of the cells with aggregates was then calculated. When the constructs without mRFP were used for transfection, the procedure was same, except the RFP intensity was not measured. Scanning was performed with triplicate or quadruplicate in each experimental condition. Data was generated from the quantification of more than 250,000 cells in each experimental set-up.
# [4] = system: polyQ inclusions in 150Q-nls Neuro2a cells (tNhtt-EGFP-150Q-nls); experiment: ArrayScan quantification of polyQ inclusion formation in inducible 150Q-nls Neuro2a cells; conditions: 150Q-nls Neuro2a cells, constructs without mRFP, 48 hours after induction
# Protocol: as §3, with “Rat pheochromocytoma (PC12) cells were grown in the same conditions as Neuro2a cells, except for the serum composition of 5% of fetal bovine and 10% of horse serum (Sigma). All transient transfections were performed with Lipofectamine 2000 (Invitrogen) according to the manufacturer's instruction.” left out
# as §4
# as §5, with “Secondly, nuclei were defined as the objects of interest and the cells with average intensity more than 50 within 3 pixels from the nucleus were selected for the analysis.” left out, “Scanning was performed with triplicate or quadruplicate in each experimental condition.” left out
substance,measurement,setting,value
HSC70bm-(QBP1)2 (MARVKKDQAEPLHRKFERQPPGSNWKWWPGIFDSNWKWWPGIFD) [HQ],decrease of the percentage of PI-positive cells,[1],37.4%
same,decrease of the percentage of PI-positive cells,[2],47.2%
same,decrease of aggregation compared to control counterparts (S and HS),[3],58.5%
same,reduction of aggregation compared to control counterparts (S and HS),[4],45.2%
